Measured values as given in patent publication US12018059B2, “Human amylin analog polypeptides and methods of use” (Intarcia Therapeutics, Inc., priority 2018, dated 2024).
Converted amounts (≈) assume the structure as drawn. Like-named read-outs stand apart in the source and are kept apart here. Starred links: 1 amine or outer side, 2 acyl side, 3 side chain; linkers in the order of their positions; H or OH if unused. Positions of bridges follow the written chain, without caps; N, C: chain ends. Non-standard residues stand in square brackets, D forms with d. Residues, ends and D or L forms follow the SMILES beside them. Groups on a side chain read outwards from the residue. *: point of attachment. C18 diacid = O=C(O)CCCCCCCCCCCCCCCCC(=O)*; γGlu = O=C(O)[C@H](CCC(=O)[*:2])N[*:1]; Palmitoyl = CCCCCCCCCCCCCCCC(=O)*

Columns and labels:
[1] = Acute food intake inhibition after SC bolus injection (BioDAQ); conditions: Long Evans rats on 45% high fat diet
[2] = 27-day weight loss in combination with exenatide; conditions: LE DIO rats
[3] = 27-day HbA1c change in combination with exenatide; conditions: dose 30 mcg/kg + Exenatide 10 mcg/kg, ZDF rats
[4] = 13-day dose-response body weight loss, continuous SC infusion by osmotic mini-pump; conditions: 13 days, LE DIO rats; for DIO Dose Response 13 d weight loss, ΔΔ % weight loss: from baseline and vehicle control
[5] = Solubility of amylin analog polypeptides (visual inspection, room temperature); format: physicochemical
Description: The analog polypeptides described herein were tested for solubility in saline 20% DMSO in water (i.e., bioassay buffer) or in aqueous (DI water) at room temperature. Samples were visually inspected for clarity of the sample, any appearance of turbidity or haziness.

in vivo = test: in vivo; parameters: species or system Sprague-Dawley rats; conditions: male, Sprague-Dawley, rat, iv, 0.033 mg/kg
How it was run: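 Peptide plasma levels measured by UPLC-MS/MS (C18, product-ion monitoring) after protein precipitation or WCX SPE, calibrated in K2EDTA/protease-inhibitor rat plasma. Dosing in non-fasted male Sprague-Dawley rats (n=3): 0.033 mg/kg over 1 h by IV or SC infusion, or 0.3 mg/kg SC bolus; sampling up to 48 h.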

[6] = in vivo; cited from earlier work
[7] = in serum; cited from earlier work

solubility ([5]; Solubility) | Vd (in vivo) | clearance (in vivo) | half-life (in vivo) | solubility ([5]; deionised water, TFA salt, DI H2O, room temperature, read-out: Solubility) | Molecule | Acute Food Intake % Inhibition vs vehicle ([1]; 0-24 hr after acute SC dosing) | Acute Food Intake % Inhibition vs vehicle ([1]; 25-48 hr after acute SC dosing) | Acute Food Intake % Inhibition vs vehicle ([1]; 49-72 hr after acute SC dosing) | DIO Combination + Exenatide 27 d weight loss, ΔΔ % weight loss ([2]; dose 3 mcg/kg + Exenatide 10 mcg/kg) | DIO Combination + Exenatide 27 d weight loss, ΔΔ % weight loss ([2]; dose 10 mcg/kg + Exenatide 10 mcg/kg) | DIO Combination + Exenatide 27 d weight loss, ΔΔ % weight loss ([2]; dose 30 mcg/kg + Exenatide 10 mcg/kg) | ZDF Combination + Exenatide 27 d HbA1c (%), ΔΔ % HbA1c [3] | DIO Dose Response 13 d weight loss, ED50 [4] | DIO Dose Response 13 d weight loss, ΔΔ % weight loss [4] | DIO Combination + Exenatide 27 d weight loss, ΔΔ % weight loss ([2]; dose 100 mcg/kg + Exenatide 10 mcg/kg) | DIO Combination + Exenatide 27 d weight loss, ΔΔ % weight loss ([2]; dose 300 mcg/kg + Exenatide 10 mcg/kg) | DIO Combination + Exenatide 27 d weight loss, ΔΔ % weight loss ([2]; dose 600 mcg/kg + Exenatide 10 mcg/kg) | half-life [6] | half-life [7]
80.6 mg/mL (≈ 18 mM) | 0.174 L/kg | 0.478 mL/min/kg | 5.16 h | – | CCCCCCCCCCCCCCCC(=O)N[C@@H](CCC(=O)N[C@@H](CCC(=O)NCCCC[C@@H](NC(=O)[C@H](CCC(=O)O)NC(=O)[C@H](CC(N)=O)NC(=O)[C@H](C)NC(=O)[C@H](CC(C)C)NC(=O)[C@H](CCCNC(=N)N)NC(=O)[C@H](CCC(N)=O)NC(=O)[C@@H](NC(=O)[C@H](C)NC(=O)[C@@H]1CSSC[C@H](NC(=O)[C@@H](N)CO)C(=O)N[C@@H](CC(N)=O)C(=O)N[C@@H]([C@@H](C)O)C(=O)N[C@@H](CO)C(=O)N[C@@H]([C@@H](C)O)C(=O)N1)[C@@H](C)O)C(=O)N[C@@H](Cc1c[nH]cn1)C(=O)N[C@@H](CCCCN)C(=O)N[C@@H](CO)C(=O)N[C@@H](CO)C(=O)N[C@@H](CC(N)=O)C(=O)N[C@@H](CC(N)=O)C(=O)N[C@@H](Cc1ccccc1)C(=O)NCC(=O)N1CCC[C@H]1C(=O)N[C@H](C(=O)N[C@@H](CC(C)C)C(=O)N1CCC[C@H]1C(=O)N1CCC[C@H]1C(=O)N[C@H](C(=O)N[C@@H](CCCCN)C(=O)N[C@H](C(=O)NCC(=O)N[C@@H](CO)C(=O)N[C@@H](CCC(=O)O)C(=O)N[C@H](C(=O)N[C@@H](Cc1ccc(O)cc1)C(N)=O)[C@@H](C)O)C(C)C)[C@@H](C)O)[C@@H](C)CC)C(=O)O)C(=O)O [Compound A27] (H-SCNTSTCATQRLANE[dK]([γGlu-γGlu-Palmitoyl])HKSSNNFGPILPPTKVGSETY-NH2; disulfide 2-7; N-terminus assumed) | 86% | 57% | 13% | 9% | 12% | 17% | 3.3% | 0.036 mg/kg | 5% | – | – | – | – | –
– | 0.175 L/kg | 0.101 mL/min/kg | 22.6 h | 138 mg/mL | CC[C@H](C)[C@H](NC(=O)[C@@H]1CCCN1C(=O)CNC(=O)[C@H](Cc1ccccc1)NC(=O)[C@H](CC(N)=O)NC(=O)[C@H](CC(N)=O)NC(=O)[C@H](CO)NC(=O)[C@H](CO)NC(=O)[C@H](CCCCN)NC(=O)[C@H](Cc1c[nH]cn1)NC(=O)[C@H](CC(C)C)NC(=O)[C@H](CCC(=O)O)NC(=O)[C@H](CC(N)=O)NC(=O)[C@H](C)NC(=O)[C@H](CC(C)C)NC(=O)[C@H](CCCNC(=N)N)NC(=O)[C@H](CCC(N)=O)NC(=O)[C@@H](NC(=O)[C@H](C)NC(=O)[C@@H]1CSSC[C@H](NC(=O)[C@@H](N)CCCCNC(=O)CC[C@H](NC(=O)CC[C@H](NC(=O)CCCCCCCCCCCCCCCCC(=O)O)C(=O)O)C(=O)O)C(=O)N[C@@H](CC(N)=O)C(=O)N[C@@H]([C@@H](C)O)C(=O)N[C@@H](CO)C(=O)N[C@@H]([C@@H](C)O)C(=O)N1)[C@@H](C)O)C(=O)N[C@@H](CC(C)C)C(=O)N1CCC[C@H]1C(=O)N1CCC[C@H]1C(=O)N[C@H](C(=O)N[C@@H](CCCCN)C(=O)N[C@H](C(=O)NCC(=O)N[C@@H](CO)C(=O)N[C@@H](CCC(=O)O)C(=O)N[C@H](C(=O)N[C@@H](Cc1ccc(O)cc1)C(N)=O)[C@@H](C)O)C(C)C)[C@@H](C)O [Compound A65] (H-K([γGlu-γGlu-C18 diacid])CNTSTCATQRLANELHKSSNNFGPILPPTKVGSETY-NH2; disulfide 2-7; N-terminus assumed) | 50% | 25% | 14% | – | – | – | – | 0.07 mg/kg | 3% | 8% | 9% | 12% | – | –
– | – | – | – | – | davalintide | – | – | – | – | – | – | – | – | – | – | – | – | about 26 minutes | –
– | – | – | – | – | human amylin (KCNTATCATQRLANFLVHSSNNFGAILSSTNVGSNTY) [37-residue polypeptide hormone co-secreted with insulin from pancreatic β-cells] | – | – | – | – | – | – | – | – | – | – | – | – | – | about 13 minutes
